Reference: US20130096135A1, “Selected Inhibitors of Protein Tyrosine Kinase Activity” (METHYLGENE INC., priority 2011, published 2013)

Biological target: T1, VEGF receptor KDR (VEGFR2) (Homo sapiens, UniProt P35968)
T1 construct: made in house; host or cells: Sf9 cells (Spodoptera frugiperda), baculovirus
Assay: In vitro receptor tyrosine kinase assay (VEGF receptor KDR), DELFIA
Format: biochemical
Details: recombinant GST-VEGFR2 (806-1356), ATP 0.6 uM, enzyme 5 nM; read-out: VEGFR_IC50_UM
From the text: In Vitro Receptor Tyrosine Kinase Assay (VEGF receptor KDR)
This test measures the ability of compounds to inhibit the enzymatic activity of recombinant human VEGF receptor enzymatic activity.
A 1.6-kb cDNA corresponding to the catalytic domain of VEGFR2 (KDR) (Genbank accession number AF035121 amino acid 806 to 1356) is cloned into the Pst I site of the pDEST20 Gateway vector (Invitrogen) for the production of a GST-tagged version of that enzyme. This construct is used to generate recombinant baculovirus using the Bac-to-Bac™ system according to the manufacturer's instructions (Invitrogen).
The GST-VEGFR2806-1356 protein is expressed in Sf9 cells (Spodoptera frugiperda) upon infection with recombinant baculovirus construct. Briefly, Sf9 cells grown in suspension and maintained in serum-free medium (Sf900 II supplemented with gentamycin) at a cell density of about 2×10^6 cells/ml are infected with the above-mentioned viruses at a multiplicity of infection (MOI) of 0.1 during 72 hours at 27° C. with agitation at 120 rpm on a rotary shaker. Infected cells are harvested by centrifugation at 398g for 15 min. Cell pellets are frozen at −80° C. until purification is performed.
All steps described in cell extraction and purification are performed at 4° C. Frozen Sf9 cell pellets infected with the GST-VEGFR2806-1356 recombinant baculovirus are thawed and gently resuspended in Buffer A (PBS pH 7.3 supplemented with 1 μg/ml pepstatin, 2 μg/ml Aprotinin and leupeptin, 50 μg/ml PMSF, 50 μg/ml TLCK and 10 μM E64 and 0.5 mM DTT) using 3 ml of buffer per gram of cells. Suspension is Dounce homogenized and 1% Triton X-100 is added to the homogenate after which it is centrifuged at 22500 g, 30 min., 4 °C. The supernatant (cell extract) is used as starting material for purification of GST-VEGFR2806-1356.
The supernatant is loaded onto a GST-agarose column (Sigma) equilibrated with PBS pH 7.3. Following a four column volume (CV) wash with PBS pH 7.3+1% Triton X-100 and 4 CV wash with buffer B (50mM Tris pH 8.0, 20% glycerol and 100mM NaCl), bound proteins are step eluted with 5 CV of buffer B supplemented with 5 mM DTT and 15 mM glutathion. GST-VEGFR2806-1356 enriched fractions from this chromatography step are pooled based on U.V. trace i.e. fractions with high 0.D.280. Final GST-VEGFR2806-1356 protein preparations concentrations are about 0.7 mg/ml with purity approximating 70%. Purified GST-VEGFR2806-1356 protein stocks are aliquoted and frozen at −80° C. prior to use in enzymatic assay.
Inhibition of VEGFR/KDR is measured in a DELFIATM assay (Perkin Elmer). The substrate poly(Glu4, Tyr) is immobilized onto black high-binding polystyrene 96-well plates. The coated plates are washed and stored at 4° C. During the assay, the enzyme is pre-incubated with inhibitor and Mg-ATP on ice in polypropylene 96-well plates for 4 minutes, and then transferred to the coated plates. The subsequent kinase reaction takes place at 30° C. for 10-30 minutes. ATP concentrations in the assay are 0.6 uM for VEGFR/KDR (2× the Km). Enzyme concentration is 5 nM. After incubation, the kinase reactions are quenched with EDTA and the plates are washed. Phosphorylated product is detected by incubation with Europium-labeled anti-phosphotyrosine MoAb. After washing the plates, bound MoAb is detected by time-resolved fluorescence in a Gemini SpectraMax reader (Molecular Devices). Compounds are evaluated over a range of concentrations, and IC50 values (concentration of compounds giving 50% inhibition of enzymatic activity) are determined.

T1 sequence (P35968 806-1356): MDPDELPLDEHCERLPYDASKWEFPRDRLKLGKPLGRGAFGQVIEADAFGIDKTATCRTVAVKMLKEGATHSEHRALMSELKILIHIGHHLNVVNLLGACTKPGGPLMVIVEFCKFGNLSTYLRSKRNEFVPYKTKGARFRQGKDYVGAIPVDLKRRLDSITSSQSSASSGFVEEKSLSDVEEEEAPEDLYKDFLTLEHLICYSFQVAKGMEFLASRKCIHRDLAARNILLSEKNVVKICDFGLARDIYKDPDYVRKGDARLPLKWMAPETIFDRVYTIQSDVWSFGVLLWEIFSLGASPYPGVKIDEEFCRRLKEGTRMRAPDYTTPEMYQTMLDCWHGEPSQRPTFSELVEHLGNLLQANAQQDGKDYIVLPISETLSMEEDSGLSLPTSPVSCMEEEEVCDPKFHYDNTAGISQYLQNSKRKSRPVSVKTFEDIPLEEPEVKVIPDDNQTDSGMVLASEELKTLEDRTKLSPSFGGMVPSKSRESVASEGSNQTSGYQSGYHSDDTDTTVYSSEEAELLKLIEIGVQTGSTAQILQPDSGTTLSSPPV

| Compound | IC50 [nM] |
| --- | --- |
| O=C(Nc1ccc(Oc2ccnc3cc(-c4ccc(CN5CCN(C(=O)CS)CC5)cn4)sc23)c(F)c1)NC1CC1 [Compound 114, 1-Cyclopropyl-3-(3-fluoro-4-(2-(5-((4-(2-mercaptoacetyl)piperazin-1-yl)methyl)pyridin-2-yl)thieno[3,2-b]pyridin-7-yloxy)phenyl)urea] | 10 |
| CC(=O)SCC(=O)N1CCN(Cc2ccc(-c3cc4nccc(Oc5ccc(NC(=O)NC6CC6)cc5F)c4s3)nc2)CC1 [Compound 22, S-2-(4-((6-(7-(4-(3-Cyclopropylureido)-2-fluorophenoxy)thieno[3,2-b]pyridin-2-yl)pyridin-3-yl)methyl)piperazin-1-yl)-2-oxoethyl ethanethioate] | 15 |
| CC(C)C(=O)OCC(=O)N1CCN(Cc2ccc(-c3cc4nccc(Oc5ccc(NC(=O)NC6CC6)cc5F)c4s3)nc2)CC1 [Compound 80, 2-(4-((6-(7-(4-(3-Cyclopropylureido)-2-fluorophenoxy)thieno[3,2-b]pyridin-2-yl)pyridin-3-yl)methul)piperazin 1-yl)-2-oxoethyl isobutrate] | 20 |
| O=C(Nc1ccc(Oc2ccnc3cc(-c4ccc(CN5CCCC(C(=O)NC[C@@H](O)CO)C5)cn4)sc23)c(F)c1)NC1CC1 (stereo partly drawn) [Compound 9, 1-((6-(7-(4-(3-Cyclopropylureido)-2-fluoro-phenoxy)thieno[3,2-b]pyridin-2-yl)pyridin-3-yl)methyl)-N-((R)-2,3-dihydroxypropyl)piperidine-3-carboxamide] | 11 |
| COCCOCCOC(=O)N1CCN(Cc2ccc(-c3cc4nccc(Oc5ccc(NC(=O)NC6CC6)cc5F)c4s3)nc2)CC1 [Compound 75, 2-(2-Methoxyethoxy)ethyl 4-((6-(7-(4-(3-cyclopropylureido)-2-fluorophenoxy)thieno[3,2-b]pyridin-2-yl)pyridin-3-yl)methyl)piperazine-1-carboxylate] | 16 |
| CNCCNC(=O)C1CCCN(Cc2ccc(-c3cc4nccc(Oc5ccc(NC(=O)NC6CC6)cc5F)c4s3)nc2)C1 (stereo not drawn) [Compound 5, 1-((6-(7-(4-(3-Cyclopropylureido)-2-fluorophenoxy)thieno[3,2-b]pyridin-2-yl)pyridin-3-yl)methyl)-N-(2-(methylamino)ethyl)piperidine-3-carboxamide] | 8 |
| CC(=O)OCC(=O)OCC(=O)N1CCN(Cc2ccc(-c3cc4nccc(Oc5ccc(NC(=O)NC6CC6)cc5F)c4s3)nc2)CC1 [Compound 34, 2-(4-((6-(7-(4-(3-Cyclopropylureido)-2-fluorophenoxy)thieno[3,2-b]pyridin-2-yl)pyridin-3-yl)methyl)piperazin-1-yl)-2-oxoethyl 2-acetoxyacetate] | 5 |
| COCCOC(=O)N1CCN(Cc2ccc(-c3cc4nccc(Oc5ccc(NC(=O)NC6CC6)cc5F)c4s3)nc2)CC1 [Compound 76, 2-Methoxyethyl 4-((6-(7-(4-(3-cyclopropylureido)-2-fluorophenoxy)thieno[3,2-b]pyridin-2-yl)pyridin-3-yl)methyl)piperazine-1-carboxylate] | 8 |
| C[C@@H]1CN(Cc2ccc(-c3cc4nccc(Oc5ccc(NC(=O)NC6CC6)cc5F)c4s3)nc2)CCN1CCO [Compound 119, (R)-1-cyclopropyl-3-(3-fluoro-4-(2-(5-((4-(2-hydroxyethyl)-3-methylpiperazin-1-yl)methyl)pyridin-2-yl)thieno[3,2-b]pyridin-7-yloxy)phenyl)urea] | 8 |
| CCCC(=O)OCC(=O)N1CCN(Cc2ccc(-c3cc4nccc(Oc5ccc(NC(=O)NC6CC6)cc5F)c4s3)nc2)CC1 [Compound 79, 2-(4-((6-(7-(4-(3-Cyclopropylureido)-2-fluorophenoxy)thieno[3,2-b]pyridin-2-yl)pyridin-3-yl)methyl)piperazin-1-yl)-2-oxoethyl butyrate] | 19 |
| CN(C)CCN(C)C(=O)C1CCCN(Cc2ccc(-c3cc4nccc(Oc5ccc(NC(=O)NC6CC6)cc5F)c4s3)nc2)C1 (stereo not drawn) [Compound 4, 1-((6-(7-(4-(3-Cyclopropylureido)-2-fluorophenoxy)thieno [3,2-b]pyridin-2-yl)pyridin-3-yl)methyl)-N-(2-(dimethylamino)ethyl)-N-methylpiperidine-3-carboxamide] | 8 |
| O=C(Nc1ccc(Oc2ccnc3cc(-c4ccc(CN5CCN(C(=O)COC(=O)CCCC[C@H]6SC[C@H]7NC(=O)N[C@H]76)CC5)cn4)sc23)c(F)c1)NC1CC1 [Compound 120, 2-(4-((6-(7-(4-(3-Cyclopropylureido)-2-fluorophenoxy)thieno[3,2-b]pyridin-2-yl)pyridin-3-yl)methyl)piperazin-1-yl)-2-oxoethyl 5-((3aR,4R,6aS)-2-oxohexahydro-1H-thieno[3,4-d]imidazol-4-yl)pentanoate] | 21 |
| COCCOCCOCC(=O)NC1CCN(Cc2ccc(-c3cc4nccc(Oc5ccc(NC(=O)NC6CC6)cc5F)c4s3)nc2)CC1 [Compound 31] | 17 |

The remaining compounds from weak to strong by IC50, led by results:

| IC50 [nM] | Compound |
| --- | --- |
| 7 | CN(C)[C@H]1CCN(C(=O)C2CCCN(Cc3ccc(-c4cc5nccc(Oc6ccc(NC(=O)NC7CC7)cc6F)c5s4)nc3)C2)C1 (stereo partly drawn) [Compound 6, 1-Cyclopropyl-3-(4-(2-(5-((3-((S)-3-(dimethylamino)pyrrolidine-1-carbonyl)piperidin-1-yl)methyl)pyridin-2-yl)thieno[3,2-b]pyridin-7-yloxy)-3-fluorophenyl)urea] |
| 7 | C[C@@H]1CN(Cc2ccc(-c3cc4nccc(Oc5ccc(NC(=O)NC6CC6)cc5F)c4s3)nc2)CCN1C(=O)CO [Compound 33] |
| 7 | O=C(Nc1ccc(Oc2ccnc3cc(-c4ccc(CN5CCCC(C(=O)N6CC[C@@H](O)C6)C5)cn4)sc23)c(F)c1)NC1CC1 (stereo partly drawn) [Compound 7, 1-Cyclopropyl-3-(3-fluoro-4-(2-(5-((3-((R)-3-hydroxypyrrolidine-1-carbonyl)piperidin-1-yl)methyl)pyridin-2-yl)thieno[3,2-b]pyridin-7-yloxy)phenyl)urea] |
| 7 | CN(CCO)C(=O)[C@H]1CCCN(Cc2ccc(-c3cc4nccc(Oc5ccc(NC(=O)NC6CC6)cc5F)c4s3)nc2)C1 [Compound 11, (S)-1-((6-(7-(4-(3-Ccyclopropylureido)-2-fluorophenoxy)thieno[3,2-b]pyridin-2-yl)pyridin-3-yl)methyl)-N-(2-hydroxyethyl)-N-methylpiperidine-3-carboxamide] |
| 6 | CN(CCO)C(=O)[C@@H]1CCCN(Cc2ccc(-c3cc4nccc(Oc5ccc(NC(=O)NC6CC6)cc5F)c4s3)nc2)C1 [Compound 12, (R)-1-((6-(7-(4-(3-Cyclopropylureido)-2-fluorophenoxy)thieno[3,2-b]pyridin-2-yl)pyridin-3-yl)methyl)-N-(2-hydroxyethyl)-N-methylpiperidine-3-carboxamide] |
| 5 | C[C@@H](O)CN1CCN(Cc2ccc(-c3cc4nccc(Oc5ccc(NC(=O)NC6CC6)cc5F)c4s3)nc2)CC1 [Compound 29, (R)-1-Cyclopropyl-3-(3-fluoro-4-(2-(5-((4-(2-hydroxypropyl)piperazin-1-yl)methyl)pyridin-2-yl)thieno[3,2-b]pyridin-7-yloxy)phenyl)urea] |
| 4 | C[C@@H]1CN(C(=O)CO)CCN1Cc1ccc(-c2cc3nccc(Oc4ccc(NC(=O)NC5CC5)cc4F)c3s2)nc1 [Compound 26, (R)-1-Cyclopropyl-3-(3-fluoro-4-(2-(5-((4-(2-hydroxyacetyl)-2-methylpiperazin-1-yl)methyl)pyridin-2-yl)thieno[3,2-b]pyridin-7-yloxy)phenyl)urea] |
| 3 | O=C(Nc1ccc(Oc2ccnc3cc(-c4ccc(CN5CCCC(C(=O)N6CC[C@H](O)C6)C5)cn4)sc23)c(F)c1)NC1CC1 (stereo partly drawn) [Compound 8, 1-Cyclopropyl-3-(3-fluoro-4-(2-(5-((3-((S)-3-hydroxypyrrolidine-1-carbonyl)piperidin-1-yl)methyl)pyridin-2-yl)thieno[3,2-b]pyridin-7-yloxy)phenyl)urea] |
